Data from patent publication US10221167B2, “Hydroxyalkylamine- and hydroxycycloalkylamine-substituted diamine-arylsulfonamide compounds with selective activity in voltage-gated sodium channels” (Merck Sharp & Dohme Corp., priority 2015, dated 2019).

What was measured:
[1] = target: T1, human Nav1.7 channels stably expressed in HEK 293 cells (Homo sapiens, UniProt Q15858); assay: IonWorks Quattro automated patch-clamp, state-dependent inhibition of Nav1.7; assay type: cell-based; conditions: inactivated state block, double-pulse protocol, holding -100 mV, read-out: potency for the Nav 1.7 sodium ion channel (as measured by IonWorks)
T1 construct: expressed in transfected cells
T1 sequence (Q15858 whole entry): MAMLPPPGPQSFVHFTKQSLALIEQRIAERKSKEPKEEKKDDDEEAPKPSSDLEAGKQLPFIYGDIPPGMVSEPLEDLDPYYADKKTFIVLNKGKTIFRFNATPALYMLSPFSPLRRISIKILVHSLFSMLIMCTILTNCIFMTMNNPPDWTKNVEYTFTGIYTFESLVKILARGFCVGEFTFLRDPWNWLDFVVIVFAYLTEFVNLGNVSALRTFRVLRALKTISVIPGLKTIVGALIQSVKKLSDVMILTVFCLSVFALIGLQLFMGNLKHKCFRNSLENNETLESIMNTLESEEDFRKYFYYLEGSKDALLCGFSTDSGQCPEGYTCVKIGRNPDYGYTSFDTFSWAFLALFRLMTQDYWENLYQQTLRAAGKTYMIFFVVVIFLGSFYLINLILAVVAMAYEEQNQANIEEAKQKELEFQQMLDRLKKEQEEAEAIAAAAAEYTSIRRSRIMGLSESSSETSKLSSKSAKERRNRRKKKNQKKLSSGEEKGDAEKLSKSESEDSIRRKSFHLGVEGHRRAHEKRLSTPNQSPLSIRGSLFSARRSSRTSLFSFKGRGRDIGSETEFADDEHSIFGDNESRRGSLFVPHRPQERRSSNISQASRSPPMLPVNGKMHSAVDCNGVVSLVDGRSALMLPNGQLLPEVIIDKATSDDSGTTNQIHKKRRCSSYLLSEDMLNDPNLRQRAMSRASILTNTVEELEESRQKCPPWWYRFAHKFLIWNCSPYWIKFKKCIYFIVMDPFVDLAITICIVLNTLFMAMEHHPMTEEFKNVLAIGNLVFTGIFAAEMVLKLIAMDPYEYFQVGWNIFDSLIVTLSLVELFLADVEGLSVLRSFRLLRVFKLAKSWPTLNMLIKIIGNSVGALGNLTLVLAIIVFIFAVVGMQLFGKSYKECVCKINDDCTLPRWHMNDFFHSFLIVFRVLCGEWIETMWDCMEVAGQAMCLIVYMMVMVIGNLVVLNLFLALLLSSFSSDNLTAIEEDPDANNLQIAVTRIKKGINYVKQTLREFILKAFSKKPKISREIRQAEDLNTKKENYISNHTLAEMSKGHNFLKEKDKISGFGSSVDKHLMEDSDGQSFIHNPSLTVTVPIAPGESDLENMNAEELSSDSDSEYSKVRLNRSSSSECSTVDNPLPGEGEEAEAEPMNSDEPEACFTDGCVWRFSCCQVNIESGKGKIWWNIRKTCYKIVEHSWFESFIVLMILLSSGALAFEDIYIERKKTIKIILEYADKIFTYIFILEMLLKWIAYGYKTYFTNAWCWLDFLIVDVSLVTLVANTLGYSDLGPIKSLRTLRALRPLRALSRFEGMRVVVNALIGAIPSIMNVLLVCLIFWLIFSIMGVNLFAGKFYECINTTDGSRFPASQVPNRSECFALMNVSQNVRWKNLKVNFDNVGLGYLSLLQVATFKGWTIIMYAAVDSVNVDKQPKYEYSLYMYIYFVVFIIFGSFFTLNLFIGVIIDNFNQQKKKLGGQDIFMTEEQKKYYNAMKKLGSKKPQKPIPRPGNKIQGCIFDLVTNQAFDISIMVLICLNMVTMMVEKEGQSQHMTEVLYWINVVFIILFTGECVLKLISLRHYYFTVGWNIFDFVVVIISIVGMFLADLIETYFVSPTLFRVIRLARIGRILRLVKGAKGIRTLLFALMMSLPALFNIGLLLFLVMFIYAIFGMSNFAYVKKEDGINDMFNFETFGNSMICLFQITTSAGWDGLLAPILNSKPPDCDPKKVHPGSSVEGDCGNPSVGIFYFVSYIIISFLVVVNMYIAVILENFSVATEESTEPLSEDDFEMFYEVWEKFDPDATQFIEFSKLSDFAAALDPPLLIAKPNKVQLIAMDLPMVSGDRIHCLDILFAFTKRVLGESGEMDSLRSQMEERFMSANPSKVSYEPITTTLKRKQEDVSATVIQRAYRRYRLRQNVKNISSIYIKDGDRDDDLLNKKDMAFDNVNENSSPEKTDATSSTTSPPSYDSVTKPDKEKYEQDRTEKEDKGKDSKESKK
Description: (§1) Compounds were tested on human Nav1.7 and Nav1.5 channels stably expressed in HEK 293 cells. […] Cells were sealed on a planar substrate using the Population Patch Plate (PPC) technology. Electrical access was obtained using both nystatin and amphotericin. A double-pulse protocol was used for the determination of IC50 values for inactivated state block. Nav1.7 and Nav1.5 expressing cells were voltage clamped at −100 mV and −110 mV, respectively. A depolarizing prepulse to −10 mV (Nav1.7) or −30 mV (Nav1.5) for 1000 ms followed by a 10 ms repolarization to −100 mV (Nav1.7) or −110 mV (Nav1.5) was given to generate fractional channel inactivation of ˜50%, followed by a 10 ms test pulse to −10 mV (Nav1.7) or −30 mV (Nav1.5) to measure peak current in control conditions and after compound addition. The following recording solutions were used (mM). External: 150 NaCl, 2 CaCl2, 5 KCl, 1 Mg Cl2, 10 HEPES, 12 Dextrose; internal: 120 CsF, 30 CsCl, 10 EGTA, 5 HEPES, 5 NaF, 2 MgCl2.
(§2) For all electrophysiology experiments, offline analysis was used to determine percent inhibition as a function of drug concentration. IC50 values were determined by fitting to the Hill equation.
(§3) The various compounds in Examples 1 through 4 and Tables 1 through 3 exemplified above were assayed for activity and selectivity using the foregoing IonWorks® technique. The results are reported in the following paragraph in a format expressing the identification of the compound with reference Example and compound (e.g. Ex 1-1 is Example 1, compound 1) followed by the observed potency in nM and the ratio of Nav1.7 potency:Nav 1.5 potency as described here. […]

[2] = target: T2, human Nav1.5 channels stably expressed in HEK 293 cells (Homo sapiens, UniProt Q14524); assay: IonWorks Quattro automated patch-clamp, Nav1.5 (selectivity ratio versus Nav1.7); assay type: cell-based; conditions: selectivity for Nav1.7 over Nav1.5, inactivated state block
T2 construct: expressed in transfected cells
T2 sequence (Q14524 whole entry): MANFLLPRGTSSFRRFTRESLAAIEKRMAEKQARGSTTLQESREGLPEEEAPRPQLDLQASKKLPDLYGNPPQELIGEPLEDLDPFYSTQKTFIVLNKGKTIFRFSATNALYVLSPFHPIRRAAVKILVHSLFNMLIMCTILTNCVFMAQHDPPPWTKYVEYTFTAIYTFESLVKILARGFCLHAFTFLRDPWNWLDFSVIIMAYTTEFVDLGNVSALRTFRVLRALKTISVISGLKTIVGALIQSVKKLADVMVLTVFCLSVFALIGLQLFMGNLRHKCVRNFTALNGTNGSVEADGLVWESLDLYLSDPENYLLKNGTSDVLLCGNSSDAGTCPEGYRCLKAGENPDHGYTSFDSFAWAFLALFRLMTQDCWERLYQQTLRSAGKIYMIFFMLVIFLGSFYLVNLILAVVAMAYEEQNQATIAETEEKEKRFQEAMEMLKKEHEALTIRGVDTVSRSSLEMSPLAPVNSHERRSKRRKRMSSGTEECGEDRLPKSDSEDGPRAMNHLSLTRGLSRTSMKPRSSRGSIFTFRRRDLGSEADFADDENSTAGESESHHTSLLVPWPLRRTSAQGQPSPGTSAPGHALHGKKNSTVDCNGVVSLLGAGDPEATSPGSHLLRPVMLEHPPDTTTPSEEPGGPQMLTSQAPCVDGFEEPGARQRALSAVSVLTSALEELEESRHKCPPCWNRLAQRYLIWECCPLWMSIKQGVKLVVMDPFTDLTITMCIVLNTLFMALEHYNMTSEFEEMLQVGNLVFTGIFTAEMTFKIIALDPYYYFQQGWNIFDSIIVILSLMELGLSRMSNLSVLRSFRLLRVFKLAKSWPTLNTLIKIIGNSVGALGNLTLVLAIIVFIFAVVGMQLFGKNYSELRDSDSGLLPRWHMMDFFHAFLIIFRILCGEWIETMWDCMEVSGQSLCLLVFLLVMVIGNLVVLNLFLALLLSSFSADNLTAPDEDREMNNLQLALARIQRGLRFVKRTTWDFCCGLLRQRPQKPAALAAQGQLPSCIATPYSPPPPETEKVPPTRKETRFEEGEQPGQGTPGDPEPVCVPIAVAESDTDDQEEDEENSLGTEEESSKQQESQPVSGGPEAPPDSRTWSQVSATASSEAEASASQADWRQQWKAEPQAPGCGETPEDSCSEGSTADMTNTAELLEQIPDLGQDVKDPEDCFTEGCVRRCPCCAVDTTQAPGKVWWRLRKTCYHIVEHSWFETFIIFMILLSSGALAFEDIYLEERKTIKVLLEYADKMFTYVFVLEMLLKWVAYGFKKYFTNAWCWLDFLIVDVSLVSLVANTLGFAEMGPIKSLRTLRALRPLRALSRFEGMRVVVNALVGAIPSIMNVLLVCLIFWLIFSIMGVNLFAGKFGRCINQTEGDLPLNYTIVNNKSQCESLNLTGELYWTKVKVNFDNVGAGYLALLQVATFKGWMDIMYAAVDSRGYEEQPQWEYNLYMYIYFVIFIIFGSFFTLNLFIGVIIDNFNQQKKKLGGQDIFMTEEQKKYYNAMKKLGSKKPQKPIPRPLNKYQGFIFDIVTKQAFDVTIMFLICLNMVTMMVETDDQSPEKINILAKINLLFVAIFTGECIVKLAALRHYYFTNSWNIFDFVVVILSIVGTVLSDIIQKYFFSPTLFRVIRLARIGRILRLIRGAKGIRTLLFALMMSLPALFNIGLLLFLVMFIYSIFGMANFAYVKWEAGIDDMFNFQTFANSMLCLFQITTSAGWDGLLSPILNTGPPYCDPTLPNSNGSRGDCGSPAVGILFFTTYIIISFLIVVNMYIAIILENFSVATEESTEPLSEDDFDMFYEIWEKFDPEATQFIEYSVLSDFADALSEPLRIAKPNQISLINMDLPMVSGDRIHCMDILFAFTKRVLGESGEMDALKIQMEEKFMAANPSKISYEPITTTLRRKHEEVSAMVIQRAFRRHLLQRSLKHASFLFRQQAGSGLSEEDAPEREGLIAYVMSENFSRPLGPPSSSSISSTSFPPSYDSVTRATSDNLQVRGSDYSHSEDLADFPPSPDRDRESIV
Description: as §1, §2, §3

Compound	IC50 [1] [µM]	ratio of Nav1.7 potency:Nav 1.5 potency [2]
O=S(=O)(Nc1ncns1)c1cc(Cl)c(NCCCCNCCNCCO)cc1F [EX 2-4, 5-chloro-2-fluoro-4-{[4-({2-[(2-hydroxyethyl)amino]ethyl}amino)butyl]amino}-N-1,2,4-thiadiazol-5-ylbenzenesulfonamide]	0.035	≥ 943
O=S(=O)(Nc1ncc(F)s1)c1cc(Cl)c(NCCCCNCC2(O)CNC2)cc1F [EX 2-6, 5-chloro-2-fluoro-N-(5-fluoro-1,3-thiazol-2-yl)-4-[(4-{[(3-hydroxyazetidin-3-yl)methyl]amino}butyl)amino] benzenesulfonamide]	0.014	≥ 2357
O=S(=O)(Nc1ncc(F)s1)c1cc(Cl)c(NCCCCNCCNCCO)cc1F [EX 2-9, 5-chloro-2-fluoro-N-(5-fluoro-1,3-thiazol-2-yl)-4-{[4-({2-[(2-hydroxyethyl)amino]ethyl}amino)butyl]amino} benzenesulfonamide]	0.029	≥ 1138
O=S(=O)(Nc1ncc(F)s1)c1cc(Cl)c(NCCCCN[C@H]2CNC[C@@H]2O)cc1F [EX 2-16, 5-chloro-2-fluoro-N-(5-fluoro-1,3-thiazol-2-yl)-4-[(4-{[(3S,4S)-4-hydroxypyrrolidin-3-yl]amino}butyl)amino] benzenesulfonamide]	0.032	≥ 1031
O=S(=O)(Nc1ncc(F)s1)c1cc(Cl)c(NCCCCNC[C@@H]2C[C@H](O)CN2)cc1F [EX 2-21, 5-chloro-2-fluoro-N-(5-fluoro-1,3-thiazol-2-yl)-4-{[4-({[(2S,4S)-4-hydroxypyrrolidin-2-yl]methyl}amino)butyl]amino} benzenesulfonamide]	0.032	≥ 344
O=S(=O)(Nc1ncc(F)s1)c1cc(Cl)c(NCCCCNC[C@@H]2C[C@@H](O)CN2)cc1F [EX 2-22, 5-chloro-2-fluoro-N-(5-fluoro-1,3-thiazol-2-yl)-4-{[4-({[(2S,4R)-4-hydroxypyrrolidin-2-yl]methyl}amino)butyl]amino} benzenesulfonamide]	0.035	≥ 942
NC[C@@H](CO)NCCCCNc1cc(F)c(S(=O)(=O)Nc2ncc(F)s2)cc1Cl [EX 2-36, 4-[(4-{[(1S)-2-amino-1-(hydroxymethyl)ethyl]amino}butyl)amino]-5-chloro-2-fluoro-N-(5-fiuoro-1,3-thiazol-2-yl)benzenesutfonamide]	0.024	≥ 1375
NC[C@@H](CO)NCCCCNc1cc(F)c(S(=O)(=O)Nc2ncns2)cc1Cl [EX 2-37, 4-[(4-{[(1S)-2-amino-1-(hydroxymethyl)ethyl]amino}butyl)amino]-5-chloro-2-fluoro-N-1,2,4-thiadiazol-5-ylbenzenesulfonamide]	0.027	≥ 1222
NC[C@H](CO)NCCCCNc1cc(F)c(S(=O)(=O)Nc2nccs2)cc1Cl [EX 2-39, 4-[(4-{[(1R)-2-amino-1-(hydroxymethyl)ethyl)amino}butyl)amino]-5-chloro-2-fluoro-N-1,3-thiazol-2-ylbenzenesulfonamide]	0.06	≥ 550
NC[C@H](CO)NCCCCNc1cc(F)c(S(=O)(=O)Nc2ncns2)cc1Cl [EX 2-41]	0.029	≥ 655
O=S(=O)(Nc1ncns1)c1cc(Br)c(NCCCCN[C@@H]2CNC[C@H]2O)cc1F [EX 2-44, 5-bromo-2-fluoro-4-((4-(((3R,4R)-4-hydroxypyrrolidin-3-yl)amino)butyl)amino)-N-(1,2,4-thiadiazol-5-yl)benzenesulfonamide]	0.025	≥ 1300
CC1(O)CN[C@H](CNCCCCNc2cc(F)c(S(=O)(=O)Nc3nccs3)cc2Cl)C1 (stereo partly drawn) [EX 3-1, 5-chloro-2-fluoro-4-((4-((((2S)-4-hydroxy-4-methylpyrrolidin-2-yl)methyl)amino)butyl)amino)-N-(thiazol-2-yl)benzenesulfonamide]	0.1	≥ 330
